Tests used:
[1] = Metabolic stability in human liver microsomes assessed as intrinsic clearance at 1 uM measured upto 60 mins in presence of NADPH by UPLC/MS-MS analysis; type: ADME, Microsome; conditions: read-out: CLH
[2] = Volume of distribution at steady state in rat at 2 mg/kg, iv by LC-MS/MS analysis; type: ADME, organism-based; conditions: in vivo, read-out: Vdss
[3] = Metabolic stability in rat liver microsomes assessed as intrinsic clearance at 1 uM measured upto 60 mins in presence of NADPH by UPLC/MS-MS analysis; type: ADME, Microsome; conditions: read-out: CLH
[4] = target: Protein cereblon/Interleukin-1 receptor-associated kinase 4 (Homo sapiens, UniProt Q9NWZ3+Q96SW2); test: PROTAC activity at CRBN/IRAK4 in human OCI-Ly10 cells assessed as induction of IRAK4 degradation measured after 24 hrs by MSD assay; type: cell-based
Sequence of Protein cereblon/Interleukin-1 receptor-associated kinase 4 (Q9NWZ3 whole entry): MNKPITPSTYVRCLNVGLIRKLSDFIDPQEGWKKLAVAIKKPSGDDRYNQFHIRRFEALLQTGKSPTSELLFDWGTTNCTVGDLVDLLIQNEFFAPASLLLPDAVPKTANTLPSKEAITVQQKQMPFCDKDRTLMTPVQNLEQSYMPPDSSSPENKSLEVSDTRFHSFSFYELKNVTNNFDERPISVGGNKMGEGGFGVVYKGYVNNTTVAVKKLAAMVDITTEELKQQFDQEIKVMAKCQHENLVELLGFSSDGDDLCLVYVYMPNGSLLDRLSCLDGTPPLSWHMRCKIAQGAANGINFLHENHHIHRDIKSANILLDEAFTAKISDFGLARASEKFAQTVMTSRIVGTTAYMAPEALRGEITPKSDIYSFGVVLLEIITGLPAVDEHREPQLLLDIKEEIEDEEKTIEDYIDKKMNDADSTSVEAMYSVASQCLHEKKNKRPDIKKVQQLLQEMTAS
Sequence of Protein cereblon/Interleukin-1 receptor-associated kinase 4 (Q96SW2 whole entry): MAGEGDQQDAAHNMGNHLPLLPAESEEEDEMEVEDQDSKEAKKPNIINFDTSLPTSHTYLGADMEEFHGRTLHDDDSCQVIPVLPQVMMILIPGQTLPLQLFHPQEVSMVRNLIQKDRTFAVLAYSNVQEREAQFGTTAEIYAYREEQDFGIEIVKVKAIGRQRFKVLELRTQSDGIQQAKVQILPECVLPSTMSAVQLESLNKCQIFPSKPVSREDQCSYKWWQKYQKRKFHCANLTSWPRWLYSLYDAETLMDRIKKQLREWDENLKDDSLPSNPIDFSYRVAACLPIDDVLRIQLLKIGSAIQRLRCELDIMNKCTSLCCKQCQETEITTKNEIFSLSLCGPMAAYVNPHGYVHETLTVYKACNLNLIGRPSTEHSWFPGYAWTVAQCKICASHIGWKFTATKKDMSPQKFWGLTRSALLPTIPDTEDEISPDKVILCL

Protein cereblon = Protein cereblon (Homo sapiens, UniProt Q96SW2); test: Binding affinity to CRBN (unknown origin) by HTRF assay
Sequence of Protein cereblon (Q96SW2 whole entry): as above

OCI-Ly10 = test: Antiproliferative activity against human OCI-Ly10 cells measured after 4 days by CellTiter-Glo Luminescent Cell Viability Assay; type: functional, cell-based; conditions: Homo sapiens, OCI-Ly10, 96 h
Cereblon/Ikaros = Cereblon/Ikaros (Homo sapiens, UniProt Q96SW2+Q13422); test: PROTAC activity at CRBN/Ikaros in human OCI-Ly10 cells assessed as induction of Ikaros degradation measured after 24 hrs by MSD assay; type: cell-based
Sequence of Cereblon/Ikaros (Q96SW2 whole entry): as above
Sequence of Cereblon/Ikaros (Q13422 whole entry): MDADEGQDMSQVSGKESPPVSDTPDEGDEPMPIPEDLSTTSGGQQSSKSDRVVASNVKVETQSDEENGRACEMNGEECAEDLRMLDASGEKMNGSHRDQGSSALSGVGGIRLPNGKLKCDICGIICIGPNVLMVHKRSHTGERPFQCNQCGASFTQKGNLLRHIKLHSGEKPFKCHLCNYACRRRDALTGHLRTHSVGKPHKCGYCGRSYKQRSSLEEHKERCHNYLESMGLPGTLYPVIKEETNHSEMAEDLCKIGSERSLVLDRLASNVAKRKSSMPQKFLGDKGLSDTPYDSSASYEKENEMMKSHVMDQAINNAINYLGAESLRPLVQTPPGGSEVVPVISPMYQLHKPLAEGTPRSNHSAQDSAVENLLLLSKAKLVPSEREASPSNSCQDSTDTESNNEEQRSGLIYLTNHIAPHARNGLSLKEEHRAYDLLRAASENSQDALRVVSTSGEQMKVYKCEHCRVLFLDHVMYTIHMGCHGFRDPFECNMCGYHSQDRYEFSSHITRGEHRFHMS

[5] = Clearance in rat at 2 mg/kg, iv by LC-MS/MS analysis; type: ADME, organism-based; conditions: in vivo
[6] = Oral bioavailability in rat at 5 mg/kg by LC-MS/MS analysis; type: ADME, organism-based; conditions: in vivo
[7] = Half life in rat at 2 mg/kg, iv by LC-MS/MS analysis; type: ADME, organism-based; conditions: in vivo
[8] = Passive permeability of the compound in wild type MDCK cells across apical to basolateral side at 1 uM measured for 120 mins by LC-MS/MS analysis; type: ADME, cell-based, Canis lupus familiaris; conditions: dog, read-out: permeability
[9] = AUC in rat at 5 mg/kg, po by LC-MS/MS analysis; type: ADME, organism-based; conditions: in vivo

In the case of `CC(C)(O)c1cc2nn([C@H]3CC[C@H](CN4CCC5(CC4)CC(CNc4cccc6c4C(=O)N(C4CCC(=O)NC4=O)C6=O)C5)CC3)cc2cc1NC(=O)c1cccc(C(F)(F)F)n1` (some centres not stated), the microsomal CLint at 1 µM [1] is reported as 2.8 µL/min/mg, the Vd [2] is reported as 13 L/kg and the microsomal CLint at 1 µM [3] is reported as 2.1 µL/min/mg. The DC50 [4] was 6 nM, the IC50 (Protein cereblon) was 44 nM and the IC50 (OCI-Ly10) was 8 nM. For the same compound, the DC50 (Cereblon/Ikaros) was 6 nM, the clearance [5] was 15 mL/min/kg and the bioavailability [6] was 1%. For the same compound, the half-life [7] was 11 h, the Papp A→B at 2 h, 1 µM [8] was 2.2 ×10⁻⁶ cm/s and the AUC [9] was 0.06 µM·h.

— ChEMBL document CHEMBL5523727, “Discovery of KT-413, a Targeted Protein Degrader of IRAK4 and IMiD Substrates Targeting MYD88 Mutant Diffuse Large B-Cell Lymphoma” (J Med Chem, 2024)
